Laboratory results reported in US20220288130A1, “COMPOSITIONS AND METHODS FOR DIAGNOSIS AND TREATMENT OF METABOLIC DISEASES AND DISORDERS” (University of Louisville Research Foundation, Inc., priority 2019, published 2022).

What was measured:
[1] = system: mouse hepatocytes (FL83B cells); assay: Glucose uptake assay (Glucose Uptake-Glo); format: cell-based; conditions: two-log difference in PC (34:2) concentration
Procedure: Glucose uptake assay. Glucose uptake was performed using the Glucose Uptake-Glo™ Assay from Promega (J1341) in accordance with the manufacturer's instructions. Briefly, 2×10^4 cells were seeded into 96 well tissue culture plate in complete medium. […] Cells were treated with 1 nM of insulin for an additional 1 hour. Medium was removed and cells were washed twice with PBS. 50 μof 2-deoxyglucose (DG, 1 mM per well) was added and incubated for 1 hour at room temperature (RT). 25 μl of stop buffer added and mixed briefly, then 25 μl of neutralization buffer added and shaken briefly. 100 μl of 2DG6P detection reagent was added and the mixture shaken for 3 hours at RT. Luminescence was recorded with 135 gain efficiency using a SYNERGY H1 (BioTek Instruments, Inc., Winooski, Vt.) luminometer. […] These supernatants (0.5 ml) were further used in hepatocyte (cultured with 0.5×10^6 fecal exosomes) cultures to determine the which cytokines were induced by fecal exosome treatment of macrophages.

AhR in FL83B cells = assay: AhR and pAhR expression in hepatocytes (western blot); format: cell-based, mouse
Procedure: Cells. Murine hepatocytes (FL83B) and human hepatocytes (HepG2) (obtained from the American Type Culture Collection, ATCC®, Manassas, Va.) were grown in tissue culture plates with F12K medium (Thermo Fisher Scientific,) supplemented with 10% heat-inactivated fetal bovine serum (FBS), 100 U ml-1 penicillin, and […] streptomycin at 37° C. in a 5% CO2 atmosphere. Human monocytes (U937) were grown in RPMI 1640 medium (Thermo Fisher Scientific, Waltham, Mass.) supplemented with 10% FBS. For fecal exosomes (with or without PKH26 labeling) treatment for FL83B and HepG2 cells, 2×10^4 cells were seeded into six well plates. After achieving 50-60% confluence, fecal exosomes (numbers indicated in Figures) were added and incubated for 16 hours at 37° C. in a 5% CO2 atmosphere. Cells were washed with PBS and processed for imaging, RNA isolation, and protein extraction. […]
Western blot analysis. […] Protein concentrations were determined using the BioRad Protein Assay Reagent. […] Individual protein was detected with specific antibodies and visualized by infrared fluorescent secondary antibodies (Table 2). The protein bands were visualized and analyzed on an Odyssey CLx Imager (LiCor Inc, Lincoln, Nebr.).

What does the source list for phosphatidylcholine [PC (34:2)]?
glucose uptake, dose dependence [1]: inhibited in a PC-dose dependent manner; AhR expression in hepatocytes (AhR in FL83B cells): confirmed in a PC-dose dependent manner
